Assays:
[1] = tested on: human hair follicles; test: Effect of preventing gray hair and promoting black hair in cultured human hair follicles damaged with hydrogen peroxide (Fontana-Masson staining of melanin); type: cell-based; settings: 100 ppm together with 1000 μM hydrogen peroxide, cultured for 3 days, FIG. 3
Protocol: Occipital scalp tissue was obtained from a person who received hair follicle transplantation surgery due to hair loss. Hair follicle samples were isolated from the obtained occipital scalp tissue using a microscope. A total of 15 hair follicle samples were prepared for 3 groups, with 5 samples per each group. The hair follicle samples were cultured on a 24-well plate (Nunc, Wiesbaden, Germany) containing 500 μL of a culture medium, with 5 samples per well. As the culture medium, William's E medium (GIBCO, NY, USA) containing 2 mM L-glutamine (PAA, Coelbe, Germany), 10 μg/mL insulin, 10 ng/mL hydrocortisone (Sigma, St Louis, Mo.), 0.1% Fungizone (GIBCO, NY, USA), 10 μg/mL streptomycin and 100 U/mL penicillin (GIBCO, NY, USA) was used. After simultaneously treating with hydrogen peroxide and a fructose 1,6-bisphosphate trisodium salt (FBP-Na3H) at 1000 μM and 100 ppm, respectively, the samples were cultured for 3 days. For comparison, control groups were treated with 1000 μM hydrogen peroxide (H2O2) only or with neither hydrogen peroxide nor the fructose 1,6-bisphosphate trisodium salt. After the treatment, the sample was fixed with formalin, washed with water, dehydrated with alcohol and xylene, and then embedded in paraffin according to a common tissue-processing procedure. […]

[2] = tested on: Normal human epidermal melanocytes; test: Melanin synthesis-promoting effect in normal human melanocytes (absorbance at 475 nm of NaOH lysate); type: cell-based; settings: cultured for 6 days, relative to untreated group as 100%
Protocol: Normal human epidermal melanocytes (GIBCO™, ThermoFisher Scientific, USA) were treated with fructose 1,6-bisphosphate at 0 (untreated group), 0.1, 1, 10 or 100 ppm and then cultured for 6 days. After the culturing, the cells were lysed with 1 N NaOH and absorbance was measured at 475 nm. Relative melanin production was represented with respective to the absorbance of the untreated group not treated with fructose 1,6-bisphosphate as 100%. A higher absorbance means a higher melanin content.

SMILES	Melanin production in human hair follicles (Fontana-Masson staining) [1]	Prevention of decreased melanin production in hair bulbs due to hydrogen peroxide damage (Fontana-Masson staining) ([1]; compared with H2O2 only)	Relative melanin production (effect of promoting melanin production in melanocytes) ([2]; 0.1, 1, 10 or 100 ppm, FIG. 1 and FIG. 2)	Relative melanin production (effect of promoting melanin production in melanocytes) ([2]; 100 ppm treatment group)
O=C(COP(=O)([O-])[O-])[C@@H](O)[C@H](O)[C@H](O)COP(=O)([O-])O.[Na+].[Na+].[Na+] [fructose 1,6-bisphosphate trisodium salt]	promoting melanin production in human hair follicles	preventing decreased melanin production in hair bulbs due to damage caused by hydrogen peroxide		
O=C(COP(=O)(O)O)[C@@H](O)[C@H](O)[C@H](O)COP(=O)(O)O [fructose 1,6-bisphosphate]			exhibits the effect of promoting melanin production in melanocytes	significantly high

— US12090221B2, “Composition for preventing gray hair, promoting black hair and preventing, improving or treating vitiligo or hypochromatism comprising fructose 1,6-bisphosphate or salt, solvate, stereoisomer or hydrate thereof as active ingredient” (AMOREPACIFIC CORPORATION, priority 2021, dated 2024)
